“Also recorded” adds a separate entry of the source. Where a name gives a salt, the structure may show the parent alone.

Data set [1] concerns horn buds. The experiment in a line: Example 2: disbudding efficacy of chloroquine diphosphate and polidocanol, 90 days observation. The following applies: for Horn growth / Scurs / Success rate / No horn growth: 90 days. The class given is in vivo, calves. The procedure: (§1) A study on calves was performed to test the disbudding efficacy from the administration to horn buds of chloroquine diphosphate and polidocanol.
The chloroquine diphosphate was administered as compositions comprising chloroquine diphosphate suspended in water. The compositions were prepared by dispersing chloroquine diphosphate powder into water for injection. Immediately before administration the compositions were shaken to re-suspend the chloroquine diphosphate.
(§2) The polidocanol was administered either as undiluted polidocanol when administered at 100% concentration, or as a diluted solution with water for the 90%, 50% and 10% concentration groups.
The animals in the study were divided into multiple groups. Groups 1 and 2 were administered saline solution (0.9% sodium chloride) administered as a single dose for group 1, and as divided doses for group 2. Each divided dose comprised 5 doses of 0.1 mL administered around the horn bud.
Groups 3 and 4 were administered chloroquine diphosphate at either 100 mg/ml or 300 mg/mL, and groups 5 to 8 were administered polidocanol are different concentrations ranging from 100% to 10% w/v.

The test system of data set [2] is horn buds. Put plainly: General conclusion on chemical disbudding agents: efficacy. The class given is in vivo, calves. As to the method:
(§3) A study was performed to test the disbudding efficacy from the administration to horn buds of mepacrine dihydrochloride, compared to a conventional hot iron disbudding method. The mepacrine dihydrochloride was administered as compositions comprising mepacrine dihydrochloride suspended in water. The compositions were prepared by dispersing mepacrine dihydrochloride powder into water for injection. Immediately before administration the compositions were shaken to re-suspend the mepacrine dihydrochloride.
as §1
(§4) Sixteen calves (4 to 6 days old) obtained from commercial dairy farms were used in this study. The calves were randomly assigned to receive one of the four formulations (Table 3). Animals were gently restrained and the hair around the horn bud region was clipped. The formulations (0.3 to 0.5 mL) were then injected subcutaneously under the right horn bud or around the right horn bud using a McLintock syringe and needle (22G 11/64″, 0.71*4.3 mm) which delivered 0.1 mL on each injection. The left horn bud acted as control. The details of the treatment are given in the below Table 3. […] The differences in the growth rate of the right and left horn buds were determined by measuring the height of the horn buds at regular intervals. Photos of the horn buds were taken at the same time. Calves will be euthanized after 4 months by intravenous injection of pentobarbitone sodium (100 mg/kg bodyweight) for gross pathology and histopathology of horn buds.

The subject of the next data set is horn-bud tissue. The following applies: injected under the horn bud; Sutherland et al 2019; cited from earlier work.
A short description of data set [3]: Example 3: pain related behaviors and adverse effects following injection. In kind it is in vivo, calves (4 to 6 days old). As to the method:
as §4

Data set [4] has as its system horn buds. Put plainly: Example 3: growth rate of horn buds / efficacy of mepacrine and eugenol formulations. In kind it is in vivo, calves (4 to 6 days old). The following applies: for Height of right horn bud on 40th day / Height of right horn bud on 80th day / Horn growth rate (height of horn buds on 80th day minus height on 40th day), right horn bud: individual calf. The procedure: as §4, with “The formulations (0.3 to 0.5 mL) were then injected subcutaneously under the right horn bud or around the right horn bud using a McLintock syringe and needle (22G 11/64″, 0.71*4.3 mm) which delivered 0.1 mL on each injection.” left out

Data set [5] can be described thus: Example 1: pain response and procedure time. The class given is in vivo, calves (bovine dairy calves, 7 days of age). The procedure: as §3
(§5) The administration of the mepacrine dihydrochloride was performed by injecting the mepacrine dihydrochloride composition using a McLintock pre-set syringe configured to administer up to 0.5 mL. The single dose administration for groups 1 to 4 was performed by injecting the composition directly into the horn bud. The divided dose administration for groups 5 to 8 was performed by injecting the smaller doses to the area immediately around the horn bud. The animals in control group 9 were first treated with a 2% lignocaine injection as a cornual nerve block and then disbudded using a conventional hot-iron.
(§6) The animals in the study were bovine dairy calves, progressively enrolled in the study and treated at 7 days of age.
The administration procedure of disbudding by administering mepacrine was less than 1 minute for each animal, compared to 5-10 minutes for the animals disbudded with the hot-iron.

Data set [6] concerns horn buds. Put plainly: Example 1: disbudding efficacy of mepacrine dihydrochloride suspended in water, 90 days observation. The class given is in vivo, calves (bovine dairy calves, 7 days of age). The following applies: for Horn growth / Scurs / Success rate / No horn growth: 10 animals treated, 90 days. The procedure:
as §3
The animals in the study (calves) were divided into multiple groups. Groups 1 to 4 were administered a single dose of 0.5 mL of mepacrine dihydrochloride composition, with each being administered a composition with a different concentration of mepacrine dihydrochloride, ranging from 50 mg/mL to 400 mg/mL.
Groups 5 to 8 were administered a divided dose of 0.5 mL of mepacrine dihydrochloride composition, with each being administered a composition with a different concentration of mepacrine dihydrochloride, ranging from 50 mg/mL to 400 mg/mL. Each divided dose comprised 5 doses of 0.1 mL administered around the horn bud.
as §5
The left horn bud on each animal was left untreated as a control.
as §6
The success rate is based on the proportion of treated horn buds that had no subsequent horn growth or presence of a scur. A horn scur is a distorted horn that is not attached to the skull. […] The untreated horn bud on every animal developed into a horn.

For a further data set, the system named is horn bud. The following applies: high concentrations injected into the horn bud; Koger 1976; cited from earlier work.
The conditions of data set [7]: prior trials; cited from earlier work.
The nature of data set [8]: Example 2: viscosity of the polidocanol compositions (observation). The class given is physicochemical. The following applies: eg. 90%. As to the method:
as §2

A further data set concerns horn bud tissue. The following applies: as a cryogenic fluid; cited from earlier work.
The mark [9] stands for this setting: 100 mg/mL, single injection (0.5 mL), 3 animals treated.
Setting [10] is: 300 mg/ml, single injection (0.5 mL), 4 animals treated.
The mark [11] stands for this setting: 50 mg/mL, multiple injections (5 × 0.1 mL).
The mark [12] stands for this setting: 50 mg/mL, single injection (0.5 mL).
[13] abbreviates: 100 mg/mL, multiple injections (5 × 0.1 mL).
Where [14] appears, read: 100 mg/mL, single injection (0.5 mL).
The mark [15] stands for this setting: 200 mg/mL, multiple injections (5 × 0.1 mL).
Where [16] appears, read: 200 mg/mL, single injection (0.5 mL).
The mark [17] stands for this setting: 400 mg/mL, multiple injections (5 × 0.1 mL).
Setting [18] is: 400 mg/mL, single injection (0.5 mL).
The mark [19] stands for this setting: 50% polidocanol (0.5 mL), 4 animals treated.
The mark [20] stands for this setting: 90% polidocanol (0.5 mL), 4 animals treated.
Setting [21] is: 100% polidocanol (0.5 mL), 1 animal treated.

On to `CCN(CC)CCCC(C)Nc1ccnc2cc(Cl)ccc12` (stereo not drawn) [Chloroquine diphosphate], for which, in the data set on horn buds [1] (setting [9]), the Horn growth came out at 2, the Scurs was 1 and the Success rate was 0%. Moreover, in the data set with horn buds [1] (300 mg/mL), the “Disbudding success (in words)” value is “some success”; the “Horn growth outcome (in words)” value is “half the animals having no horn growth at all, and the other have having only scurs forming”. Moreover, in the data set on horn buds [1] (setting [10]), the No horn growth was 2, the Scurs amounted to 2 and the Success rate was 50%. In the data set with horn buds [2], the “Function as chemical disbudding agents” value is “effective chemical disbudding agents”.
For `C=CCc1ccc(O)c(OC)c1` [Eugenol], the Disbudding efficacy result in the data set on horn-bud tissue is on record as “relatively ineffective, delaying rather preventing horn growth in many cases”. For the same molecule, in data set [3] (following the injection), the “Character and course of the swelling” value is “painless to touch and resolved after few days”. Also, the “Swelling around the horn buds” value in [3] (following the injection) is “Swelling around the horn buds was observed; also recorded: Painless swelling at site of injection”. Further, the “Swelling and scars at the site of injection” value in data set [3] (main finding 4) is “slight swelling and scars at the site of injection”. In addition, the “Scars and depression at the site of injection” value in data set [3] (site of injection) is “scars and depression were seen at the site of injection”. In addition, the “Height of right horn bud on 40th day” value was “(5-5) mm” in the data set with horn buds [4] (0.2 mL under the horn bud); “(8-8) mm” in the data set on horn buds [4] (0.3 mL under the horn bud); 17 mm with horn buds [4] (0.4 mL around the horn bud); 8 mm in the data set with horn buds [4] (0.5 mL around the horn bud); 14 mm with horn buds [4] (0.5 mL under the horn bud). The “Height of right horn bud on 80th day” value in the data set with horn buds [4] (0.2 mL under the horn bud) was “(5-5) mm”; in the data set with horn buds [4] (0.3 mL under the horn bud), “(8-8) mm”; in the data set on horn buds [4] (0.4 mL around the horn bud), 19 mm; in the data set on horn buds [4] (0.5 mL around the horn bud), 10 mm; in the data set on horn buds [4] (0.5 mL under the horn bud), 22 mm. Moreover, the “Horn growth rate (height of horn buds on 80th day minus height on 40th day), right horn bud” value with horn buds [4] (0.2 mL under the horn bud) came out at 0 mm; in the data set on horn buds [4] (0.3 mL under the horn bud), 0 mm; in the data set on horn buds [4] (0.4 mL around the horn bud), 2mm; in the data set on horn buds [4] (0.5 mL around the horn bud), 2 mm; in the data set on horn buds [4] (0.5 mL under the horn bud), 8 mm. Further, the “Effective (number of animals), subjective assessment of efficacy” value in the data set on horn buds [4] (N = 5 (aqueous mepacrine), 5 (eugenol), 2 (20:80), 3 (80:20)) is 3. Further, the “Ineffective (number of animals), subjective assessment of efficacy” value in the data set on horn buds [4] (N = 5 (aqueous mepacrine; around the horn bud), 5 (eugenol), 3 (80:20; around the horn bud)) was found to be 2. Also, the “Ineffective, of these around the horn bud (number of animals)” value in the data set on horn buds [4] (eugenol, N = 5, around the horn bud) was 1.
`CCN(CC)CCCC(C)Nc1c2ccc(Cl)cc2nc2ccc(OC)cc12` (stereo not drawn) [Mepacrine dihydrochloride]: the Pain response entry in data set [5] (after mepacrine disbudding treatment) is “very little pain response”. The “Discomfort and pain reactions/behaviour” value in data set [5] (during administration) is “very little discomfort during administration and showed no pain reactions/behaviour”. Further, the “Discomfort / pain activity during and after injections” value in data set [5] (during injections and after completion) was “discomfort during the injections and no subsequent pain activity after completion of the injections”. The Horn growth in the data set with horn buds [6] (setting [11]) is 9; in the data set with horn buds [6] (setting [12]), 7; in the data set on horn buds [6] (setting [13]) it was 2; in the data set on horn buds [6] (setting [14]) it was 7; in the data set on horn buds [6] (setting [16]), 1; with horn buds [6] (setting [17]), 1. The Scurs with horn buds [6] (setting [11]) came to 1; in the data set on horn buds [6] (setting [13]) it was 3; with horn buds [6] (setting [15]) it was 1; with horn buds [6] (setting [16]) it was 1; in the data set with horn buds [6] (setting [17]) it was 2; with horn buds [6] (setting [18]), 2. Also, the Success rate with horn buds [6] (setting [11]) was 0%; with horn buds [6] (setting [12]), 30%; in the data set with horn buds [6] (setting [13]), 50%; in the data set on horn buds [6] (setting [14]), 30%; in the data set on horn buds [6] (setting [15]), 90%; in the data set on horn buds [6] (setting [16]) it was 80%. Moreover, the Success rate in the data set on horn buds [6] (setting [17]) is given as 70%; in the data set on horn buds [6] (setting [18]), 80%. The No horn growth is reported as 3 with horn buds [6] (setting [12]); 5 in the data set with horn buds [6] (setting [13]); 3 with horn buds [6] (setting [14]); 9 in the data set on horn buds [6] (setting [15]); 8 in the data set with horn buds [6] (setting [16]); 7 in the data set with horn buds [6] (setting [17]). The same molecule gave a No horn growth in the data set on horn buds [6] (setting [18]) of 8. For the same molecule, in the data set with horn buds [6] (0.5 mL of 200 mg/mL and 400 mg/L (so in the source), single injection and divided dose), the “Success rate (in words)” value is “high success rates”. The “Success rate by concentration (in words)” value in the data set with horn buds [6] (200 and 400 mg/mL vs 50 and 100 mg/mL) is “higher success rate in the higher concentration groups of 200 and 400 mg/mL”. Moreover, in the data set on horn buds [6] (single vs multiple injections), the “Advantage of splitting the dose into multiple injections” value is “no noticeable advantage”. For the same molecule, the “Function as chemical disbudding agents” value with horn buds [2] is given as “effective chemical disbudding agents”.
For the molecule `[Ca+2].[Cl-].[Cl-]` [calcium chloride], in the data set on horn bud, the Inflammation result is recorded as “significant inflammation” and the “Necrosis of the tissue” value is listed as “causing necrosis of the tissue”.
For `[Na+].[OH-]` [caustic soda], in data set [7], the Adverse effects entry is on record as “can lead to blindness of the treated animals”.
As for Polidocanol, in data set [8], the “Viscosity of the higher concentration compositions” value was “highly viscous”. Besides, the No horn growth in the data set on horn buds [1] (10% polidocanol (0.5 mL), 1 animal treated) was 1; with horn buds [1] (setting [20]), 1; in the data set with horn buds [1] (setting [21]), 1. Further, the Horn growth with horn buds [1] (setting [19]) amounted to 3; in the data set on horn buds [1] (setting [20]), 1. The Scurs came out at 1 in the data set with horn buds [1] (setting [19]) and 2 with horn buds [1] (setting [20]). Moreover, the Success rate in the data set with horn buds [1] (setting [19]) was found to be 0%; in the data set with horn buds [1] (setting [20]), 25%; with horn buds [1] (setting [21]) it was 100%. The “Disbudding success (in words)” value in the data set with horn buds [1] (100% concentration and 10% concentration) is recorded as “successful”; in the data set with horn buds [1] (other concentrations (90%, 50%)) it was “less successful”. Further, in the data set with horn buds [2], the “Function as chemical disbudding agents” value is “effective chemical disbudding agents”.
For the molecule liquid nitrogen, the “Destruction of horn bud tissue” value in the data set with horn bud tissue is “almost entirely ineffective”.

The values above are taken from US20260344621A1, “CHEMICAL DISBUDDING METHOD” (WELFARE CONCEPTS LIMITED, priority 2022, published 2026).
